According to ChEMBL document CHEMBL1155968, “Synthesis, anticonvulsant and CNS depressant activity of some new bioactive 1-(4-substituted-phenyl)-3-(4-oxo-2-phenyl/ethyl-4H-quinazolin-3-yl)-urea” (Eur J Med Chem, 2009):
Calls of active or inactive are those of the source. No cut-off for these calls is given here.

How the values were obtained:
[1] = test system: Mus musculus; assay: Anticonvulsant activity in ip dosed albino mouse assessed as inhibition of maximal electric shock-induced seizures after 0.5 hrs; type: functional
[2] = test system: Mus musculus; assay: Anticonvulsant activity in ip dosed albino mouse assessed as inhibition of maximal electric shock-induced seizures after 4 hrs; type: functional
[3] = test system: Mus musculus; assay: Neurotoxicity in ip dosed albino mouse assessed as minimal motor impairment after 0.5 hrs by rotarod test; type: toxicity, organism-based; conditions: in vivo
[4] = test system: Mus musculus; assay: Neurotoxicity in ip dosed albino mouse assessed as minimal motor impairment after 4 hrs by rotarod test; type: toxicity, organism-based; conditions: in vivo
[5] = test system: Mus musculus; assay: Behavioral activity in albino mouse assessed as decrease in locomotor activity at 100 mg/kg, ip by actophotometer; type: functional; conditions: route intraperitoneal
[6] = test system: Rattus norvegicus; assay: Antidepressant activity in Wistar rat assessed as increase in immobility time at 100 mg/kg, ip after 60 min by forced swim pool method; type: functional; conditions: route intraperitoneal
[7] = test system: Mus musculus; assay: Anticonvulsant activity in ip dosed albino mouse assessed as inhibition of subcutaneous pentylenetetrazole-induced seizure after 0.5 hrs; type: functional
[8] = test system: Mus musculus; assay: Anticonvulsant activity in ip dosed albino mouse assessed as inhibition of subcutaneous pentylenetetrazole-induced seizure after 4 hrs; type: functional

| SMILES | Activity [1] | Activity [2] | Activity [3] | Activity [4] | inhibition in vivo at 100 mg/kg [5] [%] | Time [6] [s] | Activity [7] | Activity [8] |
| --- | --- | --- | --- | --- | --- | --- | --- | --- |
| CCc1nc2ccccc2c(=O)n1NC(=O)Nc1ccc(Br)cc1 | inactive | inactive | 300 mg/kg | Not Active | 54 | 222.2 |  |  |
| O=C(Nc1ccc(F)cc1)Nn1c(-c2ccccc2)nc2ccccc2c1=O | inactive | inactive | Not Active | Not Active | 54 | 211.14 | inactive | inactive |
| O=C(Nc1ccccc1)Nn1c(-c2ccccc2)nc2ccccc2c1=O | inactive | inactive | 300 mg/kg | Not Active | 56 | 186.46 | inactive | inactive |
| CCc1nc2ccccc2c(=O)n1NC(=O)Nc1ccc(Cl)cc1 | inactive | inactive | Not Active |  | 52 | 180.3 | inactive | inactive |
| Cc1cccc(NC(=O)Nn2c(-c3ccccc3)nc3ccccc3c2=O)c1 | inactive | inactive | Not Active | Not Active | 59 | 171.24 | inactive | inactive |
| O=C(Nc1ccc([N+](=O)[O-])cc1)Nn1c(-c2ccccc2)nc2ccccc2c1=O | 300 mg/kg | inactive | 300 mg/kg | Not Active | 42 | 199.19 | 300 mg/kg | inactive |
| CCc1nc2ccccc2c(=O)n1NC(=O)Nc1ccc([N+](=O)[O-])cc1 | 300 mg/kg | inactive | 100 mg/kg | Not Active | 41 | 212.72 | inactive | inactive |
| CCOc1ccc(NC(=O)Nn2c(-c3ccccc3)nc3ccccc3c2=O)cc1 | inactive | inactive | 100 mg/kg | Not Active | 53 | 273.22 | inactive | inactive |
| O=C(Nc1ccc(Cl)cc1)Nn1c(-c2ccccc2)nc2ccccc2c1=O | 300 mg/kg | inactive | 300 mg/kg | Not Active | 55 | 218.5 | 300 mg/kg | inactive |
| O=C(Nc1ccc(I)cc1)Nn1c(-c2ccccc2)nc2ccccc2c1=O | inactive | inactive | 300 mg/kg | Not Active | 60 | 181.15 |  |  |
| CCc1nc2ccccc2c(=O)n1NC(=O)Nc1ccccc1 | 100 mg/kg | inactive | 300 mg/kg |  | 54 | 170.1 | 300 mg/kg | inactive |
| CCc1nc2ccccc2c(=O)n1NC(=O)Nc1ccc(C)cc1 | 100 mg/kg | 300 mg/kg | 300 mg/kg | Not Active | 55 | 243.42 | inactive | inactive |
| CCc1nc2ccccc2c(=O)n1NC(=O)Nc1ccccc1C | inactive | inactive | Not Active | Not Active | 54 | 186.3 | inactive | inactive |
| O=C(Nc1ccc(Br)cc1)Nn1c(-c2ccccc2)nc2ccccc2c1=O | 100 mg/kg | 300 mg/kg | 300 mg/kg | Not Active | 58 | 228.53 | 300 mg/kg | inactive |
